Experimental findings from patent US9822103B2, “Inhibitors of lysine methyl transferase” (priority 2013, dated 2017) are described below.

SMILES strings stand for the structures.

recombinant EZH2-641F complex (EZH2 Y641F/EED/SUZ12/RbAp48/AEBP2), sequence (Q15910 whole entry Y641F): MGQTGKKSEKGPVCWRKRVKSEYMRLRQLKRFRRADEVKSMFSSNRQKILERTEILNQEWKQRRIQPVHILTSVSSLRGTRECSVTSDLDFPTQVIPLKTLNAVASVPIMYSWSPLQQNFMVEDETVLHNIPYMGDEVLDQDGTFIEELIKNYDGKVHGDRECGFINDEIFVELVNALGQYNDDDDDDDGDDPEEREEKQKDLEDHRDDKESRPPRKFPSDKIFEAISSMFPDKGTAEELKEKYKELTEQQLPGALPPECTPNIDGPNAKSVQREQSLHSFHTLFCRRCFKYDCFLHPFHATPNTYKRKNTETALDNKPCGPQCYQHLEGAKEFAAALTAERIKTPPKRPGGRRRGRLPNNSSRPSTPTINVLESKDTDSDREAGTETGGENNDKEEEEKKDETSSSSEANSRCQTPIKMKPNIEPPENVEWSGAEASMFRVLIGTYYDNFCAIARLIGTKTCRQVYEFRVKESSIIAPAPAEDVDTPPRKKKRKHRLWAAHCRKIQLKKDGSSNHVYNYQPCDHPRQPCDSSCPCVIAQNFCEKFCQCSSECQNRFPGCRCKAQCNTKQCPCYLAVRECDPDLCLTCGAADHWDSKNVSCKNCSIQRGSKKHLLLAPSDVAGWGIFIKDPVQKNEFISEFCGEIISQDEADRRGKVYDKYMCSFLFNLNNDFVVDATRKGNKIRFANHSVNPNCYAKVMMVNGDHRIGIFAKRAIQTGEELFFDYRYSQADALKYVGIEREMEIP
recombinant EZH2-641F complex (EZH2 Y641F/EED/SUZ12/RbAp48/AEBP2), sequence (O75530 whole entry partner): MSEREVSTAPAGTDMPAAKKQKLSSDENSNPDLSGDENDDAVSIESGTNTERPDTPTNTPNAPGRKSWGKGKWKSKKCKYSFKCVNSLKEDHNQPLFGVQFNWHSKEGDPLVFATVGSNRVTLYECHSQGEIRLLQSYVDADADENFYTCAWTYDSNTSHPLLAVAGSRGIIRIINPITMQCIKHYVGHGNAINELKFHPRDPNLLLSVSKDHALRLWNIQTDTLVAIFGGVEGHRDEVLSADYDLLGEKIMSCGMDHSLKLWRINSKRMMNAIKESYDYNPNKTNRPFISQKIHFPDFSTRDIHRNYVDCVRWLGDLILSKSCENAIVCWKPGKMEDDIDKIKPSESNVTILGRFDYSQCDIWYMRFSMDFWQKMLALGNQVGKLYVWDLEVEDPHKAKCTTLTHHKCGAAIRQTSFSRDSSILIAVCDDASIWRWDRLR
recombinant EZH2-641F complex (EZH2 Y641F/EED/SUZ12/RbAp48/AEBP2), sequence (Q15022 whole entry partner): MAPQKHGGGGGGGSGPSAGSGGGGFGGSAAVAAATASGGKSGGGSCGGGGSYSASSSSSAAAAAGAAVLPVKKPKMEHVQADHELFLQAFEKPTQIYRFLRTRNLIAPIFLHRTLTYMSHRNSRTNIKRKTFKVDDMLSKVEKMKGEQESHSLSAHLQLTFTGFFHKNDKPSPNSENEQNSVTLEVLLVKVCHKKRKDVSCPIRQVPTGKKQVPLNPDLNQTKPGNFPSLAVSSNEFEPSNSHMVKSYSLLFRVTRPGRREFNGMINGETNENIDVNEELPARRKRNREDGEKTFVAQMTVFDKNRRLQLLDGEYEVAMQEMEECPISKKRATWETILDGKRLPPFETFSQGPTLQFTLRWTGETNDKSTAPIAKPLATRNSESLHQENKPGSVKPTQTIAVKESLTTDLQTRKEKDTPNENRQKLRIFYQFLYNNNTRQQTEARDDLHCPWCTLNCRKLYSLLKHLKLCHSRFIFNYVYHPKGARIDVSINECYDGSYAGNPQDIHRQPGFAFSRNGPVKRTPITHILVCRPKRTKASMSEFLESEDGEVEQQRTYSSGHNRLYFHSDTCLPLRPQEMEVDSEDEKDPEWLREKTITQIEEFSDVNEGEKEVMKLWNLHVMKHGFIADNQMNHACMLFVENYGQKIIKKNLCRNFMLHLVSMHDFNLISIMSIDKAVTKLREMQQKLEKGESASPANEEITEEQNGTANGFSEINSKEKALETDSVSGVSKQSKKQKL
recombinant EZH2-641F complex (EZH2 Y641F/EED/SUZ12/RbAp48/AEBP2), sequence (Q09028 whole entry partner): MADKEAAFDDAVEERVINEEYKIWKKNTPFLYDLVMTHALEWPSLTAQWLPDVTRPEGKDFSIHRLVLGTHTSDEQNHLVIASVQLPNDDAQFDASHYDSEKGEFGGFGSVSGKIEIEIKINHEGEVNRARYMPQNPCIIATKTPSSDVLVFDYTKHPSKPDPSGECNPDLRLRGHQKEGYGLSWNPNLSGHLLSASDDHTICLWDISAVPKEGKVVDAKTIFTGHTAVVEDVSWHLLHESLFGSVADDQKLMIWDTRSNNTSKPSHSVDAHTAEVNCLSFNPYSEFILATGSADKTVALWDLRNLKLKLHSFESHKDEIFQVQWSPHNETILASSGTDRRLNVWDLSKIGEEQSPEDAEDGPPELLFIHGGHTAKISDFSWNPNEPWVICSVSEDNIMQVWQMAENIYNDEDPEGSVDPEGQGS
recombinant EZH2-641F complex (EZH2 Y641F/EED/SUZ12/RbAp48/AEBP2), sequence (Q6ZN18 whole entry partner): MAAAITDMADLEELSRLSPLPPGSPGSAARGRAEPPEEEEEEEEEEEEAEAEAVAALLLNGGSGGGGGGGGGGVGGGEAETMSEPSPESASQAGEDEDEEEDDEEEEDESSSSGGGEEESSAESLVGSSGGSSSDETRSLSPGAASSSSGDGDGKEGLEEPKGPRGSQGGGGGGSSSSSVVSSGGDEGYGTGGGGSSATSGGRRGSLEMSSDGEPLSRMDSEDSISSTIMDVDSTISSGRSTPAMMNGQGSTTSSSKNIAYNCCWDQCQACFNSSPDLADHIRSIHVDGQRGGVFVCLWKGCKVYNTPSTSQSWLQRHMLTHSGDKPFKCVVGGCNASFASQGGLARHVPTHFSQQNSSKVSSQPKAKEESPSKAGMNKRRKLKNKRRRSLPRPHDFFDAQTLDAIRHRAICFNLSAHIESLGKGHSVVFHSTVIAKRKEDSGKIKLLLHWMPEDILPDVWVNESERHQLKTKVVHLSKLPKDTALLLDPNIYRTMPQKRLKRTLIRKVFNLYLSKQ

The experiment addresses recombinant EZH2-641F complex (EZH2 Y641F/EED/SUZ12/RbAp48/AEBP2) (Homo sapiens (Human), UniProt Q15910, Y641F). Kind of experiment: EZH2 Histone Methyl Transferase Assay (scintillation proximity assay). The settings on record: 350 nM histone peptide substrate, 500 nM 3H-SAM, 3 hours room temperature. It is filed as biochemical. A digest of the protocol: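 Radiometric SPA with EZH2 Y641F/EED/SUZ12/RbAp48/AEBP2 complex (5 nM pure or 15 nM in-house), 350 nM biotinylated K(Me2) histone peptide and 500 nM [3H]-SAM in Tris pH 9.0, 3 h at room temperature. Compounds were tested at eleven concentrations; EC50 came from non-linear regression.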
(In a scintillation proximity assay essentially only radioactivity close to the scintillant gives light.)
`C=C(C)C1(C)Cc2cc(C(=O)NCc3c(C)cc(C)[nH]c3=O)cc(Br)c2O1` (stereo not drawn) [Example 82, 7-Bromo-N-((4,6-dimethyl-2-oxo-1,2-dihydropyridin-3-yl)methyl)-2-methyl-2-(prop-1-en-2-yl)-2,3-dihydrobenzofuran-5-carboxamide]: the IC50 (as a rule, the concentration that inhibits the measured activity by half) was above 1000 nM.
As for `C=C(C)C1(C)Cc2cc(C(=O)NCc3c(C)cc(C)[nH]c3=O)cc(-c3ccc(OC)nc3)c2O1` (stereo not drawn) [Example 83, N-((4,6-dimethyl-2-oxo-1,2-dihydropyridin-3-yl)methyl)-7-(6-methoxypyridin-3-yl)-2-methyl-2-(prop-1-en-2-yl)-2,3-dihydrobenzofuran-5-carboxamide], the IC50 lay in the range of 500 to 1000 nM.
As for `CCCc1cc(C)[nH]c(=O)c1CNC(=O)c1cc(Br)c2c(c1)CC(C)=C(C)CO2` [Example 86, 9-Bromo-3,4-dimethyl-N-((6-methyl-2-oxo-4-propyl-1,2-dihydropyridin-3-yl)methyl)-2,5-dihydrobenzo[b]oxepine-7-carboxamide], the IC50 is above 1000 nM.
Consider `C=CC1COc2cc(C(=O)NCc3c(C)cc(C)[nH]c3=O)cc(Br)c2O1` (stereo not drawn) [Example 90, 8-Bromo-N-((4,6-dimethyl-2-oxo-1,2-dihydropyridin-3-yl)methyl)-2-vinyl-2,3-dihydrobenzo[b][1,4]dioxine-6-carboxamide], for which the IC50 was above 1000 nM.
The figure for `CCC1COc2cc(C(=O)NCc3c(C)cc(C)[nH]c3=O)cc(Br)c2O1` (stereo not drawn) [Example 91, 8-Bromo-N-((4,6-dimethyl-2-oxo-1,2-dihydropyridin-3-yl)methyl)-2-ethyl-2,3-dihydrobenzo[b][1,4]dioxine-6-carboxamide] is above 1000 nM.
The figure for `CCCc1cc(C)[nH]c(=O)c1CNC(=O)c1cc2c(c(-c3ccc(N4CCN(C(C)C)CC4)nc3)c1)OC(C)(C(C)C)C2` (stereo not drawn) [Example 93, 2-Isopropyl-7-(6-(4-isopropylpiperazin-1-yl)pyridin-3-yl)-2-methyl-N-((6-methyl-2-oxo-4-propyl-1,2-dihydropyridin-3-yl)methyl)-2,3-dihydrobenzofuran-5-carboxamide] is below 500 nM.
